Source: US4748161A, “Triterpenyl esters of organic acids and hypolipidemic agents composed of them” (Amano Pharmaceutical Co., Ltd., priority 1984, dated 1988)

Tested on: serum lipids and serum lipid hydroperoxide
Assay: Pharmacological test method A for anti-hyperlipidemic activity (serum lipids, 2 weeks feeding)
Format: in vivo, male Wistar strain rats
Details: for AI [(TC - HDL-C)/(HDL-C)] / HDL-C in serum / LPO in serum / PL in serum / TC in serum / TG in serum: 1% in hyperlipidemic diet, 2 weeks; for AI % of diff. / AI Diff. / HDL-C % of diff. / HDL-C Diff. / LPO % of diff. / LPO Diff. / PL % of diff. / PL Diff. / TC % of diff. / TC Diff. / TG % of diff. / TG Diff.: versus control group
Method: Male Wistar strain rats (100±lg, each 10 rats were formed into a group) were used as test animals. Diet for the control group was prepared by thorough mixing of 20% casein, 62.5% glucose, 10% hydrogenated coconut oil, 2% agar powder, 4% vitamin-containing salt mixture, 1% cholesterol, and 0.5% cholic acid (this composition is described by Fukushima et al, in "Yakugaku Zassi", 89, No. 6, pp. 857-862 (1962)). Diet for the test groups was prepared by good mixing of 1% each of cycloartenol, 24-methylenecycloartanol, and cyclobranol with the control group's diet. Each rat was kept in a cage at a constant temperature of 23±1° C. and a constant R.H. of 55±5% for 2 weeks, during which 10 g/day of the prescribed was given. Finally the rats were fasted from food except water for 16 hours (from 4 p.m. of the 14th test day to 8 a.m. of the 15th test day), and under anesthesia with pentbarbital sodium (tradename: Nembutal), blood was taken from each rat through the descending abdominal arota. Then, TC, HDL-C, TG, PL, and LPO in the serum were measured in the manner that will be described below.
A TC kit-K (supplied by Nippon Shoji Kaisha, Ltd.) was used. The principle of this determination is as follows: The ester of cholesterol in the serum is hydrolyzed with cholesterol-ester hydrolase into free cholesterol and fatty acids. All the free cholesterol is oxidized with cholesterol oxydase to form Δ^4 -cholestenone and hydrogen peroxide. Phenol and 4-aminoantipyrin are oxidatively condensed together by the formed hydrogen peroxide and peroxydase. The produced red quinone coloring matter is measured by colorimetry for absorbance at 500 nm using a spectrophotometer, thereby determining the TC:
The color-developing liquid (3.0 ml) is well mixed with the sample serum (0.02 ml). The mixture once heated at 37° C. for 15 minutes, is measured for absorbance at 500 nm with a spectrophotometer. The found absorbance is denoted by EA. On the other hand, the color-developing liquid (3.0 ml) is well mixed with the standard solution. The mixture is treated and measured for absorbance at 500 nm in the same manner as the above. This found absorbance is denoted by ES. Both EA and ES are determined with reference to the value of the blank test conducted using the color-developing liquid (3.0 ml) alone. [formula]
An HDL-C kit-N (supplied by Nippon Shoji Kaisha, Ltd.) was used. […] (VLDL) and lo density lipoprotein (LDL) in the serum is precipitated by the action of heparin. The precipitate is separated by centrifugation. High density lipoprotein (HDL) is dissolved in the separated supernatant. Esters of cholesterol in this fraction is hydrolyzed with cholesterol-ester hydrolase into free cholesterol and fatty acids. All the free cholesterol is oxidized with cholesterol oxydase to form Δ^4 -cholestenone and hydrogen peroxide. Phenol and 4-aminoantipyrine are oxidatively condensed together by the formed hydrogen peroxide and peroxydase. The produced red quinone coloring matter is measured by colorimetry for absorbance at 500 nm using a spectrophotometer, thereby determining the HDL-C.
A PL kit-K (supplied by Nippon Shoji Kaisha, Ltd.) was used for the determination. Lecithin, sphingomyelin, and lysolecithin are decomposed by phospholipase D into choline and phosphatidic acid, N-acylsphingosyl phosphate, or lysophosphatidic acid, respectively. The resulting choline is quantitatively decomposed by choline oxydase into hydrogen peroxide and betaine. With this hydrogen peroxide, and aid of peroxydase, phenol and 4-aminoantipyrin are condensed into red quinone pigment, then the absorbance at 500 nm of which is measured with a spectrophotometer, thereby determining the PL.
Serum TG level was determined by means of a triglyceride test kit (supplied by Wako Pure Chemical Industries, Ltd.) in which acetylacetone is used for a reagent, in the following manner: Serum proteins are precipitated, when isopropyl alcohol and the sample serum are mixed. […]

| Compound | AI [(TC - HDL-C)/(HDL-C)] | HDL-C in serum | LPO in serum | PL in serum | TC in serum | TG in serum | AI % of diff. | AI Diff. | HDL-C % of diff. | HDL-C Diff. | LPO % of diff. | LPO Diff. | PL % of diff. | PL Diff. | TC % of diff. | TC Diff. | TG % of diff. | TG Diff. |
| --- | --- | --- | --- | --- | --- | --- | --- | --- | --- | --- | --- | --- | --- | --- | --- | --- | --- | --- |
| CC(C)=CCCC(C)C1CCC2(C)C3CCC4C(C)(C)C(OC(=O)C=Cc5ccc([N+](=O)[O-])cc5)CCC45CC35CCC12C (centres unmarked) [Example 101, cycloartenyl ester of p-nitro cinnamic acid] | 3.668 | 46.4 mg/dL | 2.12 nmol/mL | 150.7 mg/dL | 216.6 mg/dL | 28.2 mg/dL | -53.2% | -4.172 | +25.7% | +9.5 mg/dl | -24.3% | -0.68 nmol/mL | -9.0% | -14.9 mg/dL | -33.6% | -109.6 mg/dL | -17.1% | -5.8 mg/dL |
| C=C(CCC(C)C1CCC2(C)C3CCC4C(C)(C)C(OC(=O)c5cccc(N)c5)CCC45CC35CCC12C)C(C)C (centres unmarked) [Example 100, 24-Methylenecyloartanyl ester of m-aminobenzoic acid] | 0.766 | 90.1 mg/dL | 1.68 nmol/mL | 155.6 mg/dL | 159.1 mg/dL | 34.3 mg/dL | -37.3% | -0.456 | +4.2% | +3.6 mg/dl | -25.2% | -0.56 nmol/mL | -10.2% | -17.6 mg/dL | -17.2% | -33.1 mg/dL | -5.5% | -2.0 mg/dL |
| CCCCC/C=C\C/C=C\CCCCCCCC(=O)OC1CCC23CC24CCC2(C)C(C(C)CCC(C)=C(C)C)CCC2(C)C4CCC3C1(C)C (centres unmarked) [Example 51, cyclobranyllinolate] | 0.623 | 96.4 mg/dL | 1.69 nmol/mL | 146.0 mg/dL | 156.5 mg/dL | 34.7 mg/dL | -49.0% | -0.599 | +11.5% | +9.9 mg/dl | -24.4% | -0.55 nmol/mL | -15.4% | -26.6 mg/dL | -18.6% | -35.7 mg/dL | -4.3% | -1.6 mg/dL |
| CC(C)=C(C)CCC(C)C1CCC2(C)C3CCC4C(C)(C)C(OC(=O)c5ccc(O)cc5)CCC45CC35CCC12C (centres unmarked) [Example 58, cyclobranyl-p-hydroxybenzoate] | 1.318 | 62.0 mg/dL | 1.82 nmol/mL | 121.3 mg/dL | 143.7 mg/dL | 26.8 mg/dL | -25.4% | -0.449 | +3.0% | +1.8 mg/dl | -28.1% | -0.71 nmol/mL | -11.3% | -15.4 mg/dL | -13.7% | -22.9 mg/dL | -1.5% | -0.4 mg/dL |
| CC(C)=C(C)CCC(C)C1CCC2(C)C3CCC4C(C)(C)C(OC(=O)c5cccc(N)c5)CCC45CC35CCC12C (centres unmarked) [Example 49, cyclobranyl-m-aminobenzoate] | 1.288 | 58.0 mg/dL | 2.02 nmol/mL | 128.4 mg/dL | 132.7 mg/dL | 18.3 mg/dL | -30.3% | -0.559 | -1.2% | -0.7 mg/dL | -13.7% | -0.32 nmol/mL | -13.5% | -20.0 mg/dL | -20.6% | -34.4 mg/dL | -26.2% | -6.5 mg/dL |
| C=C(CCC(C)C1CCC2(C)C3CCC4C(C)(C)C(OC(=O)C=Cc5ccc(OC(C)=O)c(OCC)c5)CCC45CC35CCC12C)C(C)C (centres unmarked) [Example 72, 24-methylenecycloartanyl-4-acetoxy-3-ethoxycinnamate] | 1.091 | 89.2 mg/dL | 2.07 nmol/mL | 160.3 mg/dL | 186.5 mg/dL | 41.8 mg/dL | -35.2% | -0.593 | +10.2% | +8.3 mg/dl | -10.4% | -0.24 nmol/mL | -10.8% | -19.4 mg/dL | -14.1% | -30.6 mg/dL | -2.4% | -1.0 mg/dL |
| CC(C)=CCCC(C)C1CCC2(C)C3CCC4C(C)(C)C(OC(=O)C=Cc5ccc(N)cc5)CCC45CC35CCC12C (centres unmarked) [Example 102, cycloartenyl ester of p-amino-cinnamic acid] | 3.262 | 48.1 mg/dL | 2.02 nmol/mL | 140.9 mg/dL | 205.0 mg/dL | 26.7 mg/dL | -58.4% | -4.578 | +30.4% | +11.2 mg/dl | -27.9% | -0.78 nmol/mL | -14.9% | -24.7 mg/dL | -37.2% | -121.2 mg/dL | -21.5% | -7.3 mg/dL |
| CC(C)=C(C)CCC(C)C1CCC2(C)C3CCC4C(C)(C)C(OC(=O)c5ccc(N)cc5)CCC45CC35CCC12C (centres unmarked) [Example 43, cyclobranyl-p-aminobenzoate] | 0.713 | 91.9 mg/dL | 1.54 nmol/mL | 146.0 mg/dL | 157.4 mg/dL | 33.3 mg/dL | -41.7% | -0.509 | +6.2% | +5.4 mg/dl | -31.3% | -0.70 nmol/mL | -15.4% | – | -18.1% | -34.8 mg/dL | -8.2% | -3.0 mg/dL |
| CC(C)=CCCC(C)C1CCC2(C)C3CCC4C(C)(C)C(OC(=O)c5ccccc5[N+](=O)[O-])CCC45CC35CCC12C (centres unmarked) [Example 16, cycloartenyl-o-nitrobenzoate] | 1.529 | 59.4 mg/dL | 2.04 nmol/mL | 140.1 mg/dL | 150.2 mg/dL | 22.0 mg/dL | -17.2% | -0.318 | +1.2% | +0.7 mg/dl | -12.8% | -0.30 nmol/mL | -5.6% | -8.3 mg/dL | -10.1% | -16.9 mg/dL | -11.3% | -2.8 mg/dL |
